Reference: US10030016B2 (Sunesis Pharmaceuticals, Inc., priority 2009, dated 2018)
pEC50: −log10 of the molar value. Structures can show the parent of a compound that is named as a salt.

System: phospho-akt (Thr308) in PC-3 cells
Assay: Inhibition of phospho-akt (Thr308) in PC-3 cells, MSD phospho-akt 308 ELISA kit
Assay type: cell-based
Settings: Homo sapiens; inhibition of P308 Akt in PC-3 cells using MSD, 2 hours, no serum; read-out: EC50
Description: PC-3 cells were harvested by trypsin and counted. Cells were plated in coated 96-well flat bottom plates (plate 15,000 cells/well in 100 ul growth media (10% FBS, 1× pen-strep) an place in an incubator overnight.
Subject inhibitors were stocked at 50 mM, then diluted to 30 mM (4.8 μl cpd plus […] DMSO) in 100% DMSO. Three-fold dilutions were performed from 30 mM stock. (4 μl into 8 ul 100% DMSO). Aliquots of 1.0 μl of inhibitor solution were transferred into SF Medium (using deep well block).
Control wells were prepared as follows. For DMSO high controls, 1.0 μl of 100% DMSO was added into 1.0 ml SF. For low controls for PC-3 cells, 5 μM of Wortmannin (10 μl of 1 mM Wortmannin stock was added into 2 ml SF Medium. The supernatant media was removed and the plate was blotted. 100 μl of controls/media or compound/media were added to cells and placed in incubator for 2 hours. The supernatant media was removed and the plate was blotted. 55 μl of the MSD complete lysis buffer was added (10 mls Tris Lysis buffer, 200 ul protease inhibitor, 100 ul phosphatase inhibitor 1, and 100 ul phosphatase inhibitor II). The plate was placed on a plate shaker for 60 mins at 4 deg.
MSD plates were blocked for 1 hour by adding 150 μl of Blocking Solution (3% BSA) to each well. The MSD plates were washed 4× with TBST, and 50 μl lysates were transferred to MSD plate and place on plate shaker shake at 4 degrees O/N, light shaking (speed 3.5). The plate was washed 4× with TBST.
25 μl of Ab detection solution was added to each well. The plate was sealed and incubated 1 hr RT, light shaking (speed 3.5). The plate was washed 4 times with TBST. 150 μl of Read Buffer was added (5 mls 4×MSD Read Buffer+15 mls water). Finally the plate was read immediately on the MSD plate reader.

SMILES	pEC50
Cc1nc(N)cnc1-c1ccc(CNc2ncc(C#N)cc2C(=O)N[C@@H](C)c2ccc(F)cc2)cc1 [Example 107, (S)-2-(4-(5-amino-3-methylpyrazin-2-yl)benzylamino)-5-cyano-N-(1-(4-fluorophenyl)ethyl)nicotinamide]	< 5.00
C[C@H](NC(=O)c1cc(C#N)cnc1NCc1ccc(-c2cnc3[nH]c(=O)[nH]c3c2)c(F)c1)c1ccc(F)cc1 [Example 127, (S)-5-cyano-2-(3-fluoro-4-(2-oxo-2,3-dihydro-1H-imidazo[4,5-b]pyridin-6-yl)benzyl-amino)-N-(1-(4-fluorophenyl)ethyl) nicotinamide]	> 6.00
C[C@H](NC(=O)c1cc(C#N)cnc1NCc1ccc(-c2cnc3[nH]c(=O)n(C)c3c2)cc1)c1ccc(F)cc1 [Example 140, (S)-5-cyano-N-(1-(4-fluorophenyl)ethyl)-2-(4-(1-methyl-2-oxo-2,3-dihydro-1H-imidazo [4,5-b]pyridin-6-yl)benzylamino)nicotinamide]	> 6.00
C[C@H](NC(=O)c1nc(C#N)cnc1NCc1ccc(-c2cnc(N)c(CO)n2)cc1)c1ccc(F)c(F)c1 [Example 241, 3-[4-(5-Amino-6-hydroxy-methyl-pyrazin-2-yl)-benzylamino]-6-cyano-pyrazine-2-carboxylic acid [(S)-1-(3,4-difluoro-phenyl)-ethyl]-amide]	> 6.00
Nc1ncc(-c2ccc(CNc3ncc(C(F)(F)F)cc3C(=O)Nc3ccc(F)cc3)cc2)nc1CO [Example 242, 2-[4-(5-Amino-6-hydroxy-methyl-pyrazin-2-yl)-benzylamino]-N-(4-fluoro-phenyl)-5-trifluoromethyl-nicotinamide]	> 6.00
C[C@H](NC(=O)c1cc(C#N)cnc1NCC#Cc1ccc2nc(N)ncc2c1)c1ccc(F)cc1 [Example 257, (S)-2-(3-(2-aminoquinazolin-6-yl)prop-2-ynylamino)-5-cyano-N-(1-(4-fluorophenyl)ethyl)nicotinamide]	> 6.00
C[C@H](NC(=O)c1nc(C#N)cnc1NCC#Cc1ccc2nc(N)ncc2c1)c1ccc(F)c(F)c1 [Example 258, (S)-3-(3-(2-aminoquinazolin-6-yl)prop-2-ynylamino)-6-cyano-N-(1-(3,4-difluorophenyl)ethyl) pyrazine-2-carboxamide]	> 6.00
N#Cc1cnc(NCc2ccc(-c3cnc4[nH]ncc4c3)cc2)c(C(=O)NCc2ccc(F)c(F)c2)c1 [Example 396, 5-Cyano-N-(3,4-difluoro-benzyl)-2-[4-(1H-pyrazolo[3,4-b]pyridin-5-yl)-benzylamino]-nicotinamide]	> 6.00
C[C@H](NC(=O)c1cc(C#N)cnc1NCc1ccc(-c2cnc3[nH]nc(N)c3c2)cc1Cl)c1ccc(F)cc1 [Example 406, 2-[4-(3-Amino-1H-pyrazolo [3,4-b]pyridin-5-yl)-2-chloro-benzylamino]-5-cyano-N-[(S)-1-(4-fluoro-phenyl)-ethyl]-nicotinamide]	5.00 to 6.00
C[C@H](NC(=O)c1cc(C#N)cnc1NCc1ccc(-c2cnc3[nH]nc(N)c3c2)cc1F)c1ccc(F)cc1 [Example 407, 2-[4-(3-Amino-1H-pyrazolo [3,4-b]pyridin-5-yl)-2-fluoro-benzylamino]-5-cyano-N-[(S)-1-(4-fluoro-phenyl)-ethyl]-nicotinamide]	> 6.00
C[C@H](NC(=O)c1nc(C#N)cnc1N[C@H](C)c1ccc(-c2cnc3[nH]nc(N)c3c2)nc1)c1ccc(F)c(F)c1 [Example 415, 3-{(R)-1-[6-(3-Amino-1H-pyrazolo[3,4-b]pyridin-5-yl)-pyridin-3-yl]-ethylamino}-6-cyano-pyrazine-2-carboxylic acid [(S)-1-(3,4-difluoro-phenyl)-ethyl]-amide]	> 6.00
C[C@H](NC(=O)c1cc(C#N)cnc1N[C@H](C)c1ccc(-c2cnc3[nH]nc(N)c3c2)nc1)c1ccc(F)cc1 [Example 416, 2-{(R)-1-[6-(3-Amino-1H-pyrazolo[3,4-b]pyridin-5-yl)-pyridin-3-yl]-ethylamino}-5-cyano-N-[(S)-1-(4-fluoro-phenyl)-ethyl]-nicotinamide]	> 6.00
N#Cc1cc(F)ccc1NC(=O)c1cc(C(F)(F)F)cnc1NCc1ccc(-c2cnc3[nH]nc(N)c3c2)cc1 [Example 418, 2-(4-(3-amino-1H-pyrazolo [3,4-b]pyridin-5-yl)benzylamino)-N-(2-cyano-4-fluorophenyl)-5-(trifluoromethyl)nicotinamide]	5.00 to 6.00
C[C@H](NC(=O)c1nc(C(F)(F)F)cnc1N[C@H](C)c1ccc(-c2cnc3[nH]nc(N)c3c2)cc1)c1ccc(F)c(F)c1 [Example 427, 3-((R)-1-(4-(3-amino-1H-pyrazolo[3,4-b]pyridin-5-yl)phenyl)ethylamino)-N-((S)-1-(3,4-difluorophenyl)ethyl)-6-(trifluoromethyl) pyrazine-2-carboxamide]	5.00 to 6.00
C[C@H](NC(=O)c1nc(C(F)(F)F)cnc1NCc1ccc(-c2cnc3[nH]nc(N)c3c2)cc1)c1ccc(F)c(F)c1 [Example 428, (S)-3-(4-(3-amino-1H-pyrazolo[3,4-b]pyridin-5-yl)benzylamino)-N-(1-(3,4-difluorophenyl)ethyl)-6-(trifluoromethyl) pyrazine-2-carboxamide]	> 6.00

Same assay, conditions: Homo sapiens; inhibition of P308 Akt in PC-3 cells, 2 hours, no serum, MSD; read-out: EC50

SMILES	pEC50
CCc1cnc(NCc2ccc(-c3ccc4ncnc(N)c4c3)s2)c(C(=O)NCc2ccc(F)c(F)c2)c1 [Ex. 8.11, 2-({[5-(4-aminoquinazolin-6-yl)thiophen-2-yl]methyl}amino)-N-(3,4-difluorobenzyl)-5-ethylpyridine-3-carboxamide]	> 6.00
C[C@H](NC(=O)c1cccnc1NCc1ccc(-c2cc3c(cn2)ncn3C)s1)c1ccc(F)cc1 [Example 2.6, (S)-N-(1-(4-fluorophenyl)ethyl)-2-(((5-(1-methyl-1H-imidazo [4,5-c]pyridin-6-yl)thiophen-2-yl)methyl)amino)nicotinamide]	< 5.00
C[C@H](NC(=O)c1cccnc1NCc1ccc(-c2ccc3ncnc(NCCO)c3c2)s1)c1ccc(F)cc1 [Example 2.14, (S)-N-(1-(4-fluorophenyl)ethyl)-2-(((5-(4-(2-hydroxyethylamino)quinazolin-6-yl)thiophen-2-yl)methyl)amino)nicotinamide]	5.00 to 6.00
C[C@H](NC(=O)c1cccnc1NCc1ccc(-c2ccc3nc(N)sc3c2)s1)c1ccc(F)cc1 [Example 2.22, (S)-2-(((5-(2-aminobenzo[d]thiazol-6-yl)thiophen-2-yl)methyl)amino)-N-(1-(4-fluorophenyl)ethyl) nicotinamide]	< 5.00
COCCNC(=O)c1cccnc1NCc1ccc(-c2ccc3ncnc(N)c3c2)s1 [Example 3.35, 2-({[5-(4-aminoquinazolin-6-yl)thiophen-2-yl]methyl}amino)-N-(2-methoxyethyl)pyridine-3-carboxamide (TFA salt)]	5.00 to 6.00
Cc1ccc(NC(=O)c2cccnc2NCc2ccc(-c3ccc4ncnc(N)c4c3)s2)cc1F [Example 3.50, 2-({[5-(4-aminoquinazolin-6-yl)thiophen-2-yl]methyl}amino)-N-(3-fluoro-4-methylphenyl) pyridine-3-carboxamide (TFA salt)]	< 5.00
Nc1ncnc2ccc(-c3ccc(CNc4ncccc4C(=O)NCc4cncc(F)c4)s3)cc12 [Example 3.65, 2-({[5-(4-aminoquinazolin-6-yl)thiophen-2-yl]methyl}amino)-N-[(5-fluoropyridin-3-yl)methyl] pyridine-3-carboxamide (TFA salt)]	5.00 to 6.00
Nc1ncnc2ccc(-c3ccc(CNc4ncc(Br)cc4S(=O)(=O)NCc4ccc(F)c(F)c4)s3)cc12 [Example 20.1, 2-(((5-(4-aminoquinazolin-6-yl)thiophen-2-yl)methyl)amino)-5-bromo-N-(3,4-difluorobenzyl)pyridine-3-sulfonamide]	< 5.00
